Consider ten compounds from ChEMBL document CHEMBL1201862, “PubChem BioAssay data set” (2004).

Active and inactive are the calls of the source.

Experiment [1] has as its target T1, Corticotropin-releasing factor receptor 2/Corticotropin-releasing factor-binding protein (Homo sapiens, UniProt P24387+Q13324).
T1 sequence (Q13324 whole entry): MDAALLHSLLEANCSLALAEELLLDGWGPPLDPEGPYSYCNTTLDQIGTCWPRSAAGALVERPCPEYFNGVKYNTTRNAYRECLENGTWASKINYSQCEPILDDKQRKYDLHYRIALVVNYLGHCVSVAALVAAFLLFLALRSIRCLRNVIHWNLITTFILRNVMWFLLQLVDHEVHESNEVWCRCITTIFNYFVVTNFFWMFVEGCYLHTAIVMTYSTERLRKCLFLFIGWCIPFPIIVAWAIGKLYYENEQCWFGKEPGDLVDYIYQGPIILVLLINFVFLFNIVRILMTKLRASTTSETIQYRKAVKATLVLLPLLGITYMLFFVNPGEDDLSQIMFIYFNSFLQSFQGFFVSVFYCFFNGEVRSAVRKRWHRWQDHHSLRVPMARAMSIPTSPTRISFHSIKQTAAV
T1 sequence (P24387 whole entry): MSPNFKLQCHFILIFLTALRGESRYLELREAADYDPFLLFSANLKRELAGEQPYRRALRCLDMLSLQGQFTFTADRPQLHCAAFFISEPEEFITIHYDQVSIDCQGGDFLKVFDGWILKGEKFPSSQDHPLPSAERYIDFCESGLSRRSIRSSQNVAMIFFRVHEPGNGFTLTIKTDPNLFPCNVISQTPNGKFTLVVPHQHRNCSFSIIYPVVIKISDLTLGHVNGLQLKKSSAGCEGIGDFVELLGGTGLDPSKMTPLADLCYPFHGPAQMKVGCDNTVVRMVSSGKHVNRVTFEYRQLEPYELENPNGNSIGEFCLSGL
Nature of the experiment: activators of CRF receptor 2 with binding protein – uHTS hits, confirmation (AID 602473). The experiment is classed as functional. The conditions noted are these: read-out: EC50_Mean.

Experiment [2] deals with T1, Corticotropin-releasing factor receptor 2/Corticotropin-releasing factor-binding protein. Nature of the experiment: Dose Response confirmation of uHTS hits for small molecule antagonists of the CRF-binding protein and CRF-R2 receptor complex. The experiment is classed as functional. The conditions noted are these: read-out: IC50_Mean.
A short description of experiment [3]: CRF-BP/CRF-R2 complex antagonists, dose response, cell-based, uHTS hits, 384-well (AID 651639). The experiment is classed as functional, Homo sapiens. The conditions noted are these: read-out: IC50_Mean.
A short description of experiment [4]: ARNT/TACC3 interaction disruptors, potency, confirmation, biochemical, AlphaScreen, cherry-picked samples (AID 651703).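 Note: His-tagged ARNT PAS-B domain paired with GST-TACC3 E629A dimer coactivator fragment; potency of inhibitors that break up the complex and lower AlphaScreen signal.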 The experiment is classed as functional, Homo sapiens. (Bead proximity is the source of the signal in Alpha formats.)
In experiment [5] the target is DNA (cytosine-5)-methyltransferase 1 (Homo sapiens, UniProt P26358). In words: DNMT1 methyltransferase inhibitors, confirmation, biochemical, fluorescent molecular beacon (AID 602386). The experiment is classed as functional.
The target of experiment [6] is T2, Carboxy-terminal domain RNA polymerase II polypeptide A small phosphatase 1 (Homo sapiens, UniProt Q9GZU7).
T2 sequence (Q9GZU7 whole entry): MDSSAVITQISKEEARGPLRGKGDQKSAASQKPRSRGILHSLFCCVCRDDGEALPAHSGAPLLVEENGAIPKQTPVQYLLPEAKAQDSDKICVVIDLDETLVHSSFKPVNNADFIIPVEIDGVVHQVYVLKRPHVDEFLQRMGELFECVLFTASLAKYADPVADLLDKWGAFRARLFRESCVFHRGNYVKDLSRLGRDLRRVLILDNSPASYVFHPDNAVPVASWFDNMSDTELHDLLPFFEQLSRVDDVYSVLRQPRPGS
In words: inhibitors of CTDSP1, concentration-response testing, biochemical assay, absorbance-based, actives from ultra-high-throughput screening (AID 540297). The experiment is classed as functional.

In experiment [7] the target is T3, Replicative DNA helicase DnaB (Mycobacterium tuberculosis, UniProt P9WMR3).
T3 sequence (P9WMR3 whole entry): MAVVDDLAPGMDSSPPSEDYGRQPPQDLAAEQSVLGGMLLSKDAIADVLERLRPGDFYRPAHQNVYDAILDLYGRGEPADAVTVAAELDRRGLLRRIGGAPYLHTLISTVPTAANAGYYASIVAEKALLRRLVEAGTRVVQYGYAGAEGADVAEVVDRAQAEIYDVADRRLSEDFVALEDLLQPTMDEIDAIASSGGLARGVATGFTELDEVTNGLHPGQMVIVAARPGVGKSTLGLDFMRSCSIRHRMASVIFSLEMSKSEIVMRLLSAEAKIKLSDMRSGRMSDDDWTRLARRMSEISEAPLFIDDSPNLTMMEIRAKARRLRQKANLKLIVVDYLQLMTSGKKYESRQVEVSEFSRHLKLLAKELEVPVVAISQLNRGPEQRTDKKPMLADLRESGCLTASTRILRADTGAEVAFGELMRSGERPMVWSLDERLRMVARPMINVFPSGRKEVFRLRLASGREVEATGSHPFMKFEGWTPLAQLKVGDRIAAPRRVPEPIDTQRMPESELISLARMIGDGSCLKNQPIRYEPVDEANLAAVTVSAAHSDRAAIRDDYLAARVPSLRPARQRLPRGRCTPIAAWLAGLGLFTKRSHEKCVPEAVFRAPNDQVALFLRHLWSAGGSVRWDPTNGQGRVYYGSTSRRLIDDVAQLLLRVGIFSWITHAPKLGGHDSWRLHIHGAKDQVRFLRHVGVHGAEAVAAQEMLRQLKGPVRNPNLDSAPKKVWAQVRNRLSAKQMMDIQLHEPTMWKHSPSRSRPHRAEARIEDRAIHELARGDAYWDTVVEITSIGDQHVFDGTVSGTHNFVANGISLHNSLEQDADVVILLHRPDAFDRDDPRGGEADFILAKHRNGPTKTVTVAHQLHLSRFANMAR
In words: DnaB intein splicing inhibitors, dose response, biochemical, cell-free fluorescence (AID 449749). The experiment is classed as functional.

The target of experiment [8] is T4, Protein RecA (Mycobacterium tuberculosis, UniProt P9WHJ3).
T4 sequence (P9WHJ3 whole entry): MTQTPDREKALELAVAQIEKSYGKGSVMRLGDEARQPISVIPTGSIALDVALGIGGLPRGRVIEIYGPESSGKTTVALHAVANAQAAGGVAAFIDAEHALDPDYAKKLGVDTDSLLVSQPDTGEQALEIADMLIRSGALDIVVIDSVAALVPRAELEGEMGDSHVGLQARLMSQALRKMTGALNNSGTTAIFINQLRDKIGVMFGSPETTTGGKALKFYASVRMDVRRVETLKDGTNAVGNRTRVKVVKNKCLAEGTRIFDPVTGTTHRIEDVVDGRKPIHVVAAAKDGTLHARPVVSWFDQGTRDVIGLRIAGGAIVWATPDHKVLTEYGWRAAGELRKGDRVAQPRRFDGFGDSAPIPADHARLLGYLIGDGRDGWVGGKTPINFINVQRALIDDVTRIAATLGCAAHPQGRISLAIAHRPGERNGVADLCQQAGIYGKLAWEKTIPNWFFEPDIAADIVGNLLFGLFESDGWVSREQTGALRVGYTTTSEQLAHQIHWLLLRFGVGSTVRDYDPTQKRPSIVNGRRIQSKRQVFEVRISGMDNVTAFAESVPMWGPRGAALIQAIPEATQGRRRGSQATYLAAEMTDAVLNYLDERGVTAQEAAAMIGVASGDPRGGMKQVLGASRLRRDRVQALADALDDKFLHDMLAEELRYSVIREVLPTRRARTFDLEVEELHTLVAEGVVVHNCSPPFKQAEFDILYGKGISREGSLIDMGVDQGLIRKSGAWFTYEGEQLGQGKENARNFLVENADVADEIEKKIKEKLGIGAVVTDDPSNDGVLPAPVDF
Nature of the experiment: Fluorescence Cell-Free Homogeneous Dose Retest to Identify Inhibitors of RecA-Intein Splicing Activity. [Related pubchem assays (depositor defined):AID2097, AID2223, AID489010, AID492950]. The experiment is classed as functional.

The target of experiment [9] is Induced myeloid leukemia cell differentiation protein Mcl-1 (Homo sapiens, UniProt Q07820). The experiment is classed as functional.
The nature of experiment [10]: AlphaScreen signal interference compounds, dose response, artefact control for ARNT-TACC3 interaction inhibitor project, biochemical, luminescence, cherry-pick (AID 651705).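 Note: AlphaScreen bead proximity signal that flags compounds interfering with the detection technology; potency reflects signal decrease which marks the compound as an assay artifact.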 The experiment is classed as functional.
For experiment [11], the system named is Streptococcus. Nature of the experiment: Group A Streptococcus viability loss, dose response, counter-screen for streptokinase expression inhibitor project, luminescence, BacTiterGlo (AID 1915).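 Note: potency for reduction of bacterial viability or growth.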 The experiment is classed as functional, organism-based. (In general: Counterscreens check selectivity or assay interference.)
The nature of experiment [12]: cells. The experiment is classed as functional.
A short description of experiment [13]: A cytotoxicity screen of small molecule inhibitors of the PhoP region in Salmonella typhi identified in the primary screen. [Related pubchem assays: 1850, 1864, 1985 ]. The experiment is classed as functional.
Experiment [14] concerns Streptococcus sp. 'group A'. In words: growth inhibition of control SK(-) GAS strain, dose response, counter-screen for streptokinase expression inhibitor project, luminescence, kanamycin, BacTiterGlo, confirmation (AID 1900). The experiment is classed as functional, organism-based.
Experiment [15] in a line: Vero E6 cell cytotoxicity, dose response, cytotoxicity control for non-replicating M. tuberculosis project, secondary assay (AID 492998). The experiment is classed as functional, VeroE6. The conditions noted are these: Vero C1008.
A short description of experiment [16]: THP-1 cell cytotoxicity, dose response, cytotoxicity control for non-replicating M. tuberculosis project (AID 489025). The experiment is classed as functional.
Experiment [17] has as its target T5, Streptokinase A (Streptococcus pyogenes serotype M1, UniProt P10520).
T5 sequence (P10520 whole entry): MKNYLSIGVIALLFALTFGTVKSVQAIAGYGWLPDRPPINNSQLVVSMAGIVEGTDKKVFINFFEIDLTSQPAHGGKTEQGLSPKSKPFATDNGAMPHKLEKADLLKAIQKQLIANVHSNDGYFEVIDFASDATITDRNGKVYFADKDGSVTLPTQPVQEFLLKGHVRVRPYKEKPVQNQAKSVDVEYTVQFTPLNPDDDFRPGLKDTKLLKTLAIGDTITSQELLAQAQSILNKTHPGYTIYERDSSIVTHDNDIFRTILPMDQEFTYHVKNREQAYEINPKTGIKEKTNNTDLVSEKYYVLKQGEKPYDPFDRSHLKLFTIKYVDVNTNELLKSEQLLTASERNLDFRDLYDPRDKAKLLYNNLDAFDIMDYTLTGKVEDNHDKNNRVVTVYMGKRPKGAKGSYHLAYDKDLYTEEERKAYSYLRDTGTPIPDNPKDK
In words: S. pyogenes streptokinase expression inhibitors, potency, dose response, plasminogen activation absorbance, OD405 (AID 1914).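 Note: secreted streptokinase activity via plasminogen activation per viability signal from cell pellet.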 The experiment is classed as functional, Streptococcus pyogenes M1 GAS.

A short description of experiment [18]: intracellular Trypanosoma cruzi inhibitors in host cells – cell-based, plate reader, cherry-pick samples, set 3, dose response (AID 651818).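 Note: compounds incubated with infected cells for about four days.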 The experiment is classed as functional.

Chain of DNA (cytosine-5)-methyltransferase 1 (P26358 whole entry, the tested form may be a part): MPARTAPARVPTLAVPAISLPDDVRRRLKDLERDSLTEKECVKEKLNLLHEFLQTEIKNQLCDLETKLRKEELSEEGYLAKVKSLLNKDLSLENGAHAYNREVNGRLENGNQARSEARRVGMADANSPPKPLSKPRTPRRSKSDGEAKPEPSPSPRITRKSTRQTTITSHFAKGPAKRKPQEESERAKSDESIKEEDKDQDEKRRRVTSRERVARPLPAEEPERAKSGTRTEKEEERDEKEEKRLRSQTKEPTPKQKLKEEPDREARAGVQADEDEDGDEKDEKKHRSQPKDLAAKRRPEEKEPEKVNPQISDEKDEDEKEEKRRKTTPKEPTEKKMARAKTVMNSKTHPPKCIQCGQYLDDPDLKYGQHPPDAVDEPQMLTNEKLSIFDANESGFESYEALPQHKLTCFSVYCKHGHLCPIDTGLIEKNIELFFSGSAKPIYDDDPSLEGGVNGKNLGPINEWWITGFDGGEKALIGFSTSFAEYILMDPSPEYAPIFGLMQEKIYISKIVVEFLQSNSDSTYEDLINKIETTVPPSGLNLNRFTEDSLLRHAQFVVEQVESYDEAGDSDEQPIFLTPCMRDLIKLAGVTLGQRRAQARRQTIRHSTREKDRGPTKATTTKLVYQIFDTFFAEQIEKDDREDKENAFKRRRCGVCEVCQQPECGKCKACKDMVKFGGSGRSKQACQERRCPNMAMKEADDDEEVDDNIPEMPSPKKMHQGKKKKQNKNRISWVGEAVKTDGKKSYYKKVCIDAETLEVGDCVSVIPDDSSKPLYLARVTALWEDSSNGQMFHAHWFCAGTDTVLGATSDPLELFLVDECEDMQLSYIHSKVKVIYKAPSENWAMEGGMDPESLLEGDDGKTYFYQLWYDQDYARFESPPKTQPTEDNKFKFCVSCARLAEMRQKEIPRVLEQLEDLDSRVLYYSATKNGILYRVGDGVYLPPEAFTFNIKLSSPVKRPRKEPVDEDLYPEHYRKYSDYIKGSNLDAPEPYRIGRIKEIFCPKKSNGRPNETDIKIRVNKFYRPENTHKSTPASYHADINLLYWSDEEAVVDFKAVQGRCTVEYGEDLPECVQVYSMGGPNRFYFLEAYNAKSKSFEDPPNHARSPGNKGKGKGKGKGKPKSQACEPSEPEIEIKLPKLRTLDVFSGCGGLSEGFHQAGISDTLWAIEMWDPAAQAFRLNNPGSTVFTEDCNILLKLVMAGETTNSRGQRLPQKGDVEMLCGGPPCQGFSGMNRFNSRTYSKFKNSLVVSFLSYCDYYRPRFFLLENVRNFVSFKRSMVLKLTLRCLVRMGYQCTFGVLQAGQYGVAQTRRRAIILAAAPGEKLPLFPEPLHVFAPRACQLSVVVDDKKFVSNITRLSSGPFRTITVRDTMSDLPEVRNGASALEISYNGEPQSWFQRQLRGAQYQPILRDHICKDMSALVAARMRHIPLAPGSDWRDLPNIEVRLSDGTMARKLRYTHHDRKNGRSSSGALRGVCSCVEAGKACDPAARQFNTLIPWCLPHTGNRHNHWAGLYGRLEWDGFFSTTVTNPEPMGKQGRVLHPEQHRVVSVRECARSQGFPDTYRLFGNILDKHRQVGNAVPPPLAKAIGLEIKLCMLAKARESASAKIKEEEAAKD
Chain of Induced myeloid leukemia cell differentiation protein Mcl-1 (Q07820 whole entry): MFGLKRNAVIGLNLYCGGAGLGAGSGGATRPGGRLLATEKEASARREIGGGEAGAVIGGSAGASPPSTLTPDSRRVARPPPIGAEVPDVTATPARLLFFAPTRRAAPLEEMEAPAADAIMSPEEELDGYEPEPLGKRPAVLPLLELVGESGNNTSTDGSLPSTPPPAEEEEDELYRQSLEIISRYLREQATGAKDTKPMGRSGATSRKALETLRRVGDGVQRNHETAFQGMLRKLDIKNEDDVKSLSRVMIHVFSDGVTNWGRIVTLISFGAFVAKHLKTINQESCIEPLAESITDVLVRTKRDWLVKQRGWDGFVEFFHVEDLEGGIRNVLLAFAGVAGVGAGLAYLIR

Consider `COc1ccc(-c2cc3nc(C4CCN(C(=O)OC(C)(C)C)CC4)c(C(=O)O)cn3n2)cc1`, for which the EC50 in experiment [1] is > 53 µM (inactive). For the same compound, the IC50 in [2] is 13.1 µM (active); in experiment [3], 7.23 µM (active).
A word on the AC50: it is the midpoint of the concentration-response curve, whichever way the signal moves. As to `COCCn1c(N)c(C(=O)NCc2cccs2)c2nc3ccccc3nc21`, in [4], the AC50 is 130 µM (active).
Take `O=C1CC(=O)NC(SCC(=O)Nc2ccccc2[N+](=O)[O-])=N1`: the IC50 in experiment [5] was 8.51 µM (active); in [6] it was 4.04 µM (active).
As for `COc1ccc(N2C(=O)CSC23C(=O)N2c4c(cccc43)C(C)=CC2(C)C)cc1` (stereo not given), the figures for the EC50 in experiment [1] and in [8] were > 53 µM (inactive) and 35.6 µM (active), respectively. In addition, the IC50 in experiment [2] is 11 µM (active); in experiment [3], 4.46 µM (active). Besides, the half-maximal activity concentration (AC50) in experiment [7] was 10.3 µM (active).
For the compound `O=C(COC(=O)c1ccc(NS(=O)(=O)c2cccs2)cc1)NCc1ccco1`, the IC50 is 9.6 µM (active) in experiment [5] and 3.09 µM (active) in experiment [9].
On to `O=C(CSc1ccc2nnc(-c3ccccn3)n2n1)Nc1ccccc1C(F)(F)F`, for which the AC50 in experiment [10] is 136 µM (active).
As usually defined, the CC50 is the concentration at which the toxic effect on the cells reaches its halfway point. As for `O=C(Nc1nnc(-c2ccccn2)o1)c1cccc(Cl)c1`, the EC50 in experiment [11] was 16.5 µM (active); in [13] it was > 50 µM (active); in experiment [14] it was 2.42 µM (active); in [17], > 150 µM (not active). The AC50 in [10] was 89.6 µM (active). Further, in [12], the IC50 was 3.73 µM (active). Further, the CC50 was > 20 µM (active) in experiment [15] and > 40 µM (active) in experiment [16].
Consider `C[C@H]1CN([C@@H](C)CO)C(=O)c2cccc(NC(=O)Nc3cccc4ccccc34)c2O[C@H]1CN(C)S(=O)(=O)c1cccs1`, for which the AC50 in experiment [18] was 4.61 µM (active).
Same read-out and setting: in the case of `C[C@@H]1CN([C@@H](C)CO)C(=O)c2cccc(NC(=O)Nc3ccc4c(c3)OCO4)c2O[C@H]1CN(C)Cc1ccc(C(=O)Nc2ccccc2N)cc1` it was 1.04 µM (active).
On to `C[C@H]1CN([C@@H](C)CO)C(=O)c2cccc(NC(=O)CCCCCC(=O)Nc3ccccc3N)c2O[C@@H]1CN(C)CC1CC1`, for which, in experiment [18], the half-maximal activity concentration (AC50) was 2.88 µM (active).
